Holding throughout (test): NCI-60 cell line screen, 48 h
Test [1] deals with SK-OV-3 ovarian.
Test [2] relates to MOLT-4 leukemia.
Test [3] relates to SW-620 colon.
For test [4], the system named is IGROV1 ovarian.
Test [5] has as its system UACC-257 melanoma.
The subject of test [6] is HCT-15 colon.
Test [7] concerns KM12 colon.
The subject of test [8] is OVCAR-3 ovarian.
The test system of test [9] is T-47D breast.
Test [10] relates to SR leukemia.

The values below come from PubChem BioAssay (NCI).

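Step 1: Grow cells in 96-well plates. Step 2: Expose to compound for 48 hours at 5 concentrations. Step 3: Interpolate endpoints linearly; if unreached, use highest concentration. Here, GI50 denotes the concentration required for 50% inhibition of growth. TGI marks complete inhibition of growth.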

Consider `O=C(O)C1CC(c2ccccc2)=NN1c1ccccc1` (centres undefined), for which the TGI in test [1], in [2], in test [3], in [4], in test [5] and in [6] was above 100 µM throughout. Besides, the TGI in test [7], in test [8] and in [9] was above 100 µM in each case.

For the compound `O=S(=O)(O)c1c(N=Nc2c(O)ccc3ccccc23)ccc2ccccc12`, the TGI in [1], in test [2], in [10], in test [3], in [4] and in test [5] was above 100 µM throughout. The TGI in test [6], in test [7], in [8] and in test [9] was above 100 µM throughout.

`O=C(/C=C/c1ccc(O)cc1)NCCc1ccc(O)cc1`: the TGI in [10], in test [3], in test [4], in test [5], in test [6] and in test [7] was above 12.5 µM in each case. The TGI in [8] and in test [9] was above 12.5 µM in each case.

For `CC(O)C(O)C(N)CC=O` (centres undefined), the TGI in test [1] was above 500 µM; in test [2], above 500 µM; in test [3] it was above 185 µM; in test [4] it was above 500 µM; in test [5], above 500 µM; in test [6], above 500 µM. Further, the TGI in test [7] and in test [8] was above 500 µM in each case.

For `N#C/C=C1\C=CC(O)C(O)C1OC1OC(CO)C(O)C(O)C1O` (centres undefined), the TGI in test [1], in test [2], in [3], in [4], in [5] and in test [6] was above 100 µM throughout. The TGI in [7], in [8] and in test [9] was above 100 µM throughout.

On to `CN(C)Cc1ccc(C(=O)Nc2ccc3ncnc(Nc4ccc(Oc5cccc(F)c5)c(Cl)c4)c3c2)cc1`, for which the GI50 in [2] was 1.55 µM; in test [3] it was 1.76 µM; in [4], 1.12 µM; in test [6], 1.25 µM; in [7], 1.75 µM; in [8] it was 1.5 µM. The TGI was 3.21 µM in test [2]; 3.31 µM in [3]; 2.6 µM in [4]; 2.62 µM in test [6]; 3.21 µM in test [7]; 2.92 µM in test [8].

`Fc1ccc(-c2ccc(-c3nnc(-c4cc(F)c(Cl)cc4Cl)o3)o2)cc1Cl`: the GI50 is 41.2 µM in [1]; 24.2 µM in test [2]; 68.5 µM in test [10]; 31.9 µM in test [3]; 30.1 µM in test [4]; 46.1 µM in test [5]. Also, the GI50 in test [6] was 27.6 µM; in test [7], 26.1 µM; in test [8], 21.9 µM; in [9], 13.7 µM. The TGI in test [1] is above 100 µM; in test [2] it was 85.2 µM; in [10] it was above 100 µM; in test [3] it was 98.3 µM; in test [4], above 100 µM; in test [5], above 100 µM. In addition, the TGI is above 100 µM in test [6], 74.1 µM in [7], 72.5 µM in test [8] and 45.1 µM in [9].

`Nc1nc(SCc2ccccc2)c2ncn(Cc3ccccc3)c2n1`: the TGI in [1], in [2], in [10], in [3], in test [4] and in [5] was above 100 µM in each case. In addition, the TGI in test [6], in [7], in [8] and in test [9] was above 100 µM throughout.

Turning to `COc1ccc(SC(C)(SC)c2ccccn2)c(OC)n1` (centres undefined), the TGI in [2], in test [10], in test [3], in test [4], in test [5] and in test [6] was above 100 µM throughout. Also, the TGI in test [7] and in test [8] was above 100 µM in each case.

For `S=C(Nc1ccc(Cl)cc1)Nc1ccc(Cl)cc1` (tested in a mixture with another compound), the GI50 was 2.38 µM in test [10]; 2.99 µM in [3]; 3.26 µM in [4]; 2.65 µM in test [5]; 2.59 µM in test [6]; 2.76 µM in test [7]. Besides, the values for the GI50 in test [8] and in test [9] were 1.69 µM and 3.75 µM, respectively. Besides, the TGI in [10] was 5.74 µM; in [3], 13.8 µM; in test [4] it was above 100 µM; in test [5], 6.23 µM; in [6], 11.4 µM; in test [7], 9.1 µM. Also, the TGI in test [8] amounted to 4.48 µM; in test [9], 23.9 µM.

In the case of `S=C1N(c2ccc(Cl)cc2)C2=C(N=Nc3ccccc3)C(=Nc3ccccc3S2)N1c1ccccn1`, the TGI in [1] was found to be 31.6 µM; in test [2], 31.7 µM; in test [10], 29.2 µM; in test [3] it was 34.9 µM; in [4], 1.47 µM; in [5], 30.4 µM. The TGI in [6] is 23 µM; in [7] it was 23.8 µM; in test [8], 27.2 µM; in [9] it was 0.899 µM.

For `O=S(O)c1cc(Cl)cc(Cl)c1O`, the TGI in [1], in test [2], in [5], in test [7] and in test [8] was above 100 µM in each case.

`C[N+]1(C)CCC(C#N)(c2ccccc2)CC1`: the TGI in [1], in test [2], in test [10], in test [3], in test [4] and in [5] was above 100 µM each time. The TGI in test [6], in test [7] and in [9] was above 100 µM throughout.

For the compound `[C-]#[O+].[C-]#[O+].[Ir].[O-]c1cccc2cccnc12`, the GI50 in test [1], in test [3], in test [5], in test [6] and in test [7] was above 100 µM each time. Besides, the TGI in [1], in [10], in test [3], in test [4], in [5] and in [6] was above 100 µM in each case. This compound returned a TGI in [7] above 100 µM.

Consider `COc1cccc(-c2nc3c(C(=O)NCCN(C)C)cccc3[nH]2)c1`, for which the TGI was 69.5 µM in [1]; 24.4 µM in test [2]; above 54.6 µM in test [3]; 53.9 µM in test [4]; 31.3 µM in test [5]; 41.6 µM in [6]. The TGI in [7] is above 72 µM; in test [8], above 75.9 µM.

In the case of `C=C1C(=O)OC2C1C(OC(=O)/C(C)=C/C)CC1(C)C(=O)CCC(=C)C21` (centres undefined), the TGI in [1] was 51.7 µM; in [2] it was above 26.5 µM; in test [10], above 28 µM; in test [3], 23.4 µM; in test [4], 26.6 µM; in test [5], 28.5 µM. Also, the TGI in test [6] turned out to be 10.3 µM; in test [7] it was 32 µM; in [8] it was 19.7 µM; in [9] it was 43.3 µM.

For `CC(C)C(N=Cc1ccccc1O)C(=O)O` (centres undefined), the TGI in test [1], in test [2], in test [10], in [3], in [4] and in test [5] was above 100 µM in each case. The TGI in test [6], in test [7], in [8] and in test [9] was above 100 µM in each case.

Regarding `O=C1/C(=C\c2ccc(-c3ccc(Cl)cc3Cl)o2)SC2N=C(COc3ccc(Cl)cc3)NN12` (centres undefined), the TGI in [1] is above 100 µM; in test [2], above 100 µM; in test [10], above 100 µM; in test [3], above 100 µM; in test [4], above 100 µM; in test [5], 74.4 µM. Moreover, the TGI in test [6], in [7], in test [8] and in [9] was above 100 µM in each case.
